Here are results for 24 compounds from patent US12600728B2, “Interleukin-17 inhibitors” (priority 2020, dated 2026).

For experiment [1], the target named is biotinylated human IL-17A / AF647-labeled human IL-17RA (Homo sapiens, UniProt Q16552). Briefly: Human IL-17A×IL-17RA TR-FRET assay. In kind it is binding. The settings on record: biotinylated human IL-17A 5 nM, AF647-labeled human IL-17RA 30 nM. Summed up:
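Compounds tested in duplicate at each concentration; neutral controls contain all components with DMSO in place of compound.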

In experiment [2] the target is recombinant human IL-17AA (Homo sapiens, UniProt Q16552). Nature of the experiment: IL-6 release from NHDF cells, IL-17AA plus TNF-α stimulation. The experiment is classed as cell-based. The note with it: IL-17AA 30 pM plus TNF-α 6 pM, 24 hours, IL-6 by ELISA. Put shortly:
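IL-17-specific IL-6 release from NHDF cells adhered overnight; compounds pre-incubated 30 min at room temperature with human IL-17AA plus TNF-α, then 24 h on cells at 37° C. Final DMSO 0.1% or plasma 20%; IL-6 by ELISA (450 nm). TNF-α-only IL-6 subtracted before IC50 fit.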
(In general: An ELISA detects its analyte on a solid surface through an enzyme-linked reagent.)

Setting [3] is: TR-FRET, read-out: IL17AA FRET/ IL17Rawt IC50.
Setting [4] is: NHDF cells, read-out: IL17AA + TNF IC50 IL-6.

Like-named read-outs stand apart in the source and are kept apart here.

Sequence of recombinant human IL-17AA (Q16552 24-155): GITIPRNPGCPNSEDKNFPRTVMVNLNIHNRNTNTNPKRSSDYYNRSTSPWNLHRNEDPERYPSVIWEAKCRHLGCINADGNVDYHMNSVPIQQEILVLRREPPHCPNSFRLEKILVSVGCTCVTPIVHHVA
Sequence of biotinylated human IL-17A / AF647-labeled human IL-17RA (Q16552 24-155): as above

Take `Cc1c(-c2ccc(NC(=O)[C@@H](NC(=O)c3ccnn3C)C3CCC(F)(F)CC3)cc2)c(C(F)(F)F)cc[n+]1[O-]` [Example 27, (S)-3-(4-(2-(4,4-difluorocyclohexyl)-2-(1-methyl-1H-pyrazole-5-carboxamido)acetamido)phenyl)-2-methyl-4-(trifluoromethyl)pyridine 1-oxide]: the values for the IC50 in experiment [1] (setting [3]) and in experiment [2] (setting [4]) were 121 nM and 115 nM, respectively.

With `CCc1nocc1C(=O)N[C@H](C(=O)Nc1ccc(-c2c(C)cc[n+]([O-])c2C)cc1)[C@@H]1CC=C(F)CC1` [Example 28, 3-(4-((S)-2-(3-ethylisoxazole-4-carboxamido)-2-((S)-4-fluorocyclohex-3-en-1-yl)acetamido)phenyl)-2,4-dimethylpyridine 1-oxide], the IC50 is 20 nM in experiment [1] (setting [3]) and 22 nM in experiment [2] (setting [4]).

As to `Cc1cc[n+]([O-])c(C)c1-c1ccc(NC(=O)[C@@H](NC(=O)c2conc2C)[C@@H]2CC=C(F)CC2)cc1` [Example 29, 3-(4-((S)-2-((S)-4-fluorocyclohex-3-en-1-yl)-2-(3-methylisoxazole-4-carboxamido)acetamido)phenyl)-2,4-dimethylpyridine 1-oxide], the IC50 in experiment [1] (setting [3]) is 85 nM; in experiment [2] (setting [4]), 47 nM.

As for `CCc1nocc1C(=O)N[C@H](C(=O)Nc1ccc(-c2c(C)cc[n+]([O-])c2C)cc1)[C@H]1CCCC(F)(F)C1` [Example 30, 3-(4-((S)-2-((S)-3,3-difluorocyclohexyl)-2-(3-ethylisoxazole-4-carboxamido)acetamido)phenyl)-2,4-dimethylpyridine 1-oxide], the IC50 in experiment [1] (setting [3]) was 46 nM; in experiment [2] (setting [4]), 12 nM.

As to `CCc1nocc1C(=O)N[C@H](C(=O)Nc1ccc(-c2c(C)cc[n+]([O-])c2C)cc1)C1CCC(F)(F)CC1` [Example 31, (S)-3-(4-(2-(4,4-difluorocyclohexyl)-2-(3-ethylisoxazole-4-carboxamido)acetamido)phenyl)-2,4-dimethylpyridine 1-oxide], the values for the IC50 in experiment [1] (setting [3]) and in experiment [2] (setting [4]) were 114 nM and 15 nM, respectively.

Take `Cc1cc[n+]([O-])c(C)c1-c1ccc(NC(=O)[C@@H](NC(=O)c2ccnn2C)C2CCC(F)(F)CC2)cc1` [Example 32, (S)-3-(4-(2-(4,4-difluorocyclohexyl)-2-(1-methyl-1H-pyrazole-5-carboxamido)acetamido)phenyl)-2,4-dimethylpyridine 1-oxide]: the IC50 in experiment [1] (setting [3]) is 286 nM; in experiment [2] (setting [4]), 50 nM.

On to `COCc1nocc1C(=O)N[C@H](C(=O)Nc1ccc(-c2c(C)cc[n+]([O-])c2C)cc1)C1CCC(F)(F)CC1` [Example 33, (S)-3-(4-(2-(4,4-difluorocyclohexyl)-2-(3-(methoxymethyl)isoxazole-4-carboxamido)acetamido)phenyl)-2,4-dimethylpyridine 1-oxide], for which the IC50 in experiment [1] (setting [3]) was 1150 nM; in experiment [2] (setting [4]) it was 88 nM.

With `CCc1nocc1C(=O)N[C@H](C(=O)Nc1ccc(-c2c(C)cc[n+]([O-])c2C)cc1)C1CCCC1` [Example 34, (S)-3-(4-(2-cyclopentyl-2-(3-ethylisoxazole-4-carboxamido)acetamido)phenyl)-2,4-dimethylpyridine 1-oxide], the IC50 turned out to be 81 nM in experiment [1] (setting [3]) and 100 nM in experiment [2] (setting [4]).

Regarding `CCn1nccc1C(=O)N[C@H](C(=O)Nc1ccc(-c2c(C)cc[n+]([O-])c2C)cc1)C1CCCC1` [Example 35, (S)-3-(4-(2-cyclopentyl-2-(1-ethyl-1H-pyrazole-5-carboxamido)acetamido)phenyl)-2,4-dimethylpyridine 1-oxide], the IC50 in experiment [1] (setting [3]) was found to be 306 nM; in experiment [2] (setting [4]) it was 212 nM.

Regarding `Cc1cc[n+]([O-])c(C)c1-c1ccc(NC(=O)[C@@H](NC(=O)c2ccnn2C)C2CCCC2)cc1` [Example 36, (S)-3-(4-(2-cyclopentyl-2-(1-methyl-1H-pyrazole-5-carboxamido)acetamido)phenyl)-2,4-dimethylpyridine 1-oxide], the IC50 in experiment [1] (setting [3]) worked out at 1410 nM; in experiment [2] (setting [4]) it was 38 nM.

`Cc1cc[n+]([O-])c(C)c1-c1ccc(NC(=O)[C@@H](NC(=O)c2conc2C)C2CCCC2)cc1` [Example 37, (S)-3-(4-(2-cyclopentyl-2-(3-methylisoxazole-4-carboxamido)acetamido)phenyl)-2,4-dimethylpyridine 1-oxide]: the values for the IC50 in experiment [1] (setting [3]) and in experiment [2] (setting [4]) were 396 nM and 60 nM, respectively.

On to `Cc1cc[n+]([O-])c(C)c1-c1ccc(NC(=O)[C@H](Cc2ccccc2Cl)NC(=O)c2conc2C)cc1` [Example 38, (S)-3-(4-(3-(2-chlorophenyl)-2-(3-methylisoxazole-4-carboxamido)propanamido)phenyl)-2,4-dimethylpyridine 1-oxide], for which the IC50 worked out at 17 nM in experiment [1] (setting [3]) and 131 nM in experiment [2] (setting [4]).

With `Cc1cc[n+]([O-])c(C)c1-c1ccc(NC(=O)[C@@H](NC(=O)c2ccnn2C)C2CCCCC2)cc1` [Example 39, (S)-3-(4-(2-cyclohexyl-2-(1-methyl-1H-pyrazole-5-carboxamido)acetamido)phenyl)-2,4-dimethylpyridine 1-oxide], the IC50 in experiment [1] (setting [3]) was determined as 191 nM; in experiment [2] (setting [4]), 20 nM.

With `Cc1cc[n+]([O-])c(C)c1-c1ccc(NC(=O)[C@@H](NC(=O)c2ccnn2C(C)C)C2CCCCCC2)cc1` [Example 40, (S)-3-(4-(2-cycloheptyl-2-(1-isopropyl-1H-pyrazole-5-carboxamido)acetamido)phenyl)-2,4-dimethylpyridine 1-oxide], the results for the IC50 in experiment [1] (setting [3]) and in experiment [2] (setting [4]) were 25 nM and 2 nM, respectively.

Take `Cc1cc[n+]([O-])c(C)c1-c1ccc(NC(=O)[C@@H](NC(=O)c2ccnn2C)C2CCCCCC2)cc1` [Example 41, (S)-3-(4-(2-cycloheptyl-2-(1-methyl-1H-pyrazole-5-carboxamido)acetamido)phenyl)-2,4-dimethylpyridine 1-oxide]: the IC50 in experiment [1] (setting [3]) came to 24 nM; in experiment [2] (setting [4]), 9 nM.

As to `Cc1cc[n+]([O-])c(C)c1-c1ccc(NC(=O)[C@@H](NC(=O)c2ccnn2C2CC2)C2CCCCCC2)cc1` [Example 42, (S)-3-(4-(2-cycloheptyl-2-(1-cyclopropyl-1H-pyrazole-5-carboxamido)acetamido)phenyl)-2,4-dimethylpyridine 1-oxide], the IC50 in experiment [1] (setting [3]) was determined as 26 nM; in experiment [2] (setting [4]), 12 nM.

Consider `Cc1cc[n+]([O-])c(C)c1-c1ccc(NC(=O)[C@@H](NC(=O)c2conc2C)C2CCCCCC2)nc1` [Example 44, (S)-6′-(2-cycloheptyl-2-(3-methylisoxazole-4-carboxamido)acetamido)-2,4-dimethyl-[3,3′-bipyridine] 1-oxide], for which the values for the IC50 in experiment [1] (setting [3]) and in experiment [2] (setting [4]) were 34 nM and 18 nM, respectively.

Consider `Cc1c(-c2ccc(NC(=O)[C@@H](NC(=O)c3ccnn3C)C3CCCCC3)cc2)c(Cl)cc[n+]1[O-]` [Example 45, (S)-4-chloro-3-(4-(2-cyclohexyl-2-(1-methyl-1H-pyrazole-5-carboxamido)acetamid)phenyl)-2-methylpyridine 1-oxide], for which the IC50 in experiment [1] (IL17AA FRET/ IL17Rawt IC50, TR-FRET) was 26 nM; in experiment [2] (IL17AA + TNF IC50 IL-6, NHDF cells), 26 nM.

In the case of `Cc1c(-c2ccc(NC(=O)C(NC(=O)c3ccnn3C)C3CCC(C)CC3)cc2)c(Cl)cc[n+]1[O-]` [Example 46, 4-chloro-2-methyl-3-(4-((S)-2-(1-methyl-1H-pyrazole-5-carboxamido)-2-((1r,4S)-4-methylcyclohexyl)acetamido)phenyl)pyridine 1-oxide], the IC50 in experiment [1] (setting [3]) was 18 nM; in experiment [2] (setting [4]) it was 4 nM.

In the case of `Cc1c(-c2ccc(NC(=O)[C@@H](NC(=O)c3ccnn3C)C3CCCCCC3)cc2)c(Cl)cc[n+]1[O-]` [Example 47, (S)-4-chloro-3-(4-(2-cycloheptyl-2-(1-methyl-1H-pyrazole-5-carboxamido)acetamido)phenyl)-2-methylpyridine 1-oxide], the IC50 in experiment [1] (setting [3]) was determined as 17 nM; in experiment [2] (setting [4]), 7 nM.

Take `Cc1c(-c2ccc(NC(=O)[C@@H](NC(=O)c3ccnn3C(C)C)C3CCCCCC3)cc2)c(Cl)cc[n+]1[O-]` [Example 48, (S)-4-chloro-3-(4-(2-cycloheptyl-2-(1-isopropyl-1H-pyrazole-5-carboxamido)acetamido)phenyl)-2-methylpyridine 1-oxide]: the figures for the IC50 in experiment [1] (setting [3]) and in experiment [2] (setting [4]) were 12 nM and 1 nM, respectively.

Turning to `Cc1nocc1C(=O)N[C@H](C(=O)Nc1ccc(-c2c(Cl)cc[n+]([O-])c2C)cc1)C1CCC(F)(F)CC1` [Example 49, (S)-4-chloro-3-(4-(2-(4,4-difluorocyclohexyl)-2-(3-methylisoxazole-4-carboxamido)acetamido)phenyl)-2-methylpyridine 1-oxide], the IC50 in experiment [1] (setting [3]) was 58 nM; in experiment [2] (setting [4]), 31 nM.

On to `Cc1cc[n+]([O-])c(C)c1-c1ccc(NC(=O)[C@@H](NC(=O)c2ccnn2C(C)C)[C@H]2CCCc3ccccc32)cc1` [Example 50, 3-(4-((S)-2-(1-isopropyl-1H-pyrazole-5-carboxamido)-2-((S)-1,2,3,4-tetrahydronaphthalen-1-yl)acetamido)phenyl)-2,4-dimethylpyridine 1-oxide], for which the IC50 is 23 nM in experiment [1] (setting [3]) and 1 nM in experiment [2] (setting [4]).

In the case of `CCc1nocc1C(=O)NC(C(=O)Nc1ccc(-c2c(Cl)cc[n+]([O-])c2C)cc1)C1CCC(F)(F)CC1` (stereo not drawn) [Example 51, 4-chloro-3-(4-(2-(4,4-difluorocyclohexyl)-2-(3-ethylisoxazole-4-carboxamido)acetamido)phenyl)-2-methylpyridine 1-oxide], the values for the IC50 in experiment [1] (setting [3]) and in experiment [2] (setting [4]) were 66 nM and 62 nM, respectively.
